Measurements reported in patent publication US20190192697A1, “CHEMICAL PROBES OF LYSYL OXIDASK-LIKE 2 AND USES THEREOF” (PHARMAKEA, INC., priority 2016, published 2019).
Where a name gives a salt, the structure may show the parent alone. Read-outs that look alike come from different tables or passages of the source.

Tests used:
[1] = Plasma drug concentration in healthy human subjects after single oral dose; type: in vivo; conditions: for concentration at 2 h / concentration at 24 h: both sexes, human, plasma, read-out: Ave plasma Cmpd 2 conc; for concentration at 2 h: 2 hour post-dose
Description: The amount of free/unbound LOXL2 was evaluated in 8 mL plasma from six healthy subjects at pre-dose or at 2, 24 or 48 hours after a single oral dose of Compound 1-13A and in two healthy subjects dosed with placebo. On average, the amount of free/unbound LOXL2 was decreased by approximately 60% at 2 hours post-dosing in the subjects receiving 150 mg of Compound 1-13a (see FIG. 7).
Healthy human subjects (male and female) were dosed with compound 2 in solution. Blood samples were drawn at regular intervals and the plasma isolated and analyzed for compound 1-13a concentration as well as LOXL2 target engagement. Placebo data is the average of all the placebo subjects in the single dose study (n=10).

LOXL2 = molecular target: T1, LOXL2 (Homo sapiens, UniProt Q9Y4K0); test: Western-based quantification of free LOXL2 captured with biotinylated LOXL2 inhibitor (Compound 1-1); type: binding; conditions: pre-incubation with 1-13a 1-2 hrs at 37° C., capture with Compound 1-1
T1 sequence (Q9Y4K0 26-774): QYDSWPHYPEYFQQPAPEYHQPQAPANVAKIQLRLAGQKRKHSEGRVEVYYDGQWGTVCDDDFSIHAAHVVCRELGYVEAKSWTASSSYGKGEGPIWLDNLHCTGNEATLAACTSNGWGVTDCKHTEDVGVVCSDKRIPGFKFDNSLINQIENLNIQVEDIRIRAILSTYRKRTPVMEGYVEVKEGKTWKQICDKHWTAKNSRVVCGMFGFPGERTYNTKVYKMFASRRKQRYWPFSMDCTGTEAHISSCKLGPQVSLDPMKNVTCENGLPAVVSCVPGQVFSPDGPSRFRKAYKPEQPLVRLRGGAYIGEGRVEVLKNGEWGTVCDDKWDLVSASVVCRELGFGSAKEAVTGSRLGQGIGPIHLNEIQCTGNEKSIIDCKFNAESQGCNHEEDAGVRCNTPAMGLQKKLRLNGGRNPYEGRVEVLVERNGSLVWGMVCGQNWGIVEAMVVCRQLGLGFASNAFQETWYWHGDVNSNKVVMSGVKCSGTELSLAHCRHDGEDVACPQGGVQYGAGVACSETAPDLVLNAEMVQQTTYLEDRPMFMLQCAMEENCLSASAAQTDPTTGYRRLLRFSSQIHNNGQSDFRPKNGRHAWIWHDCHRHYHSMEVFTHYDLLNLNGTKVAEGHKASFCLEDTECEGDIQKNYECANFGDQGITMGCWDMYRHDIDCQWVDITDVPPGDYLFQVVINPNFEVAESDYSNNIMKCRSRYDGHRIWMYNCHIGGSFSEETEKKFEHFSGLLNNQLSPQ
Description: To quantify LOXL2 using a Western-based assay, a suitable amount of the LOXL2 inhibitor 1-13a, such as 10 or DMSO was pre-incubated with a suitable amount of LOXL2, such as 1 ng, 10 ng, or 100 ng, for a suitable amount of time at an appropriate temperature, such as 1-2 hrs at 37° C. Then an appropriate amount of the biotinylated labeled LOXL2 inhibitor (Compound 1-1), such as 5, was added and was allowed to incubate with the LOXL2 for a suitable amount of time at an appropriate temperature, such as 1 hr at 37° C. Then the biotinylated labeled LOXL2 inhibitor (Compound 1-1)/LOXL2 complex was isolated with Streptavidin coated magnetic beads. After incubation with the streptavidin magnetic beads for an appropriate amount of time, a magnet (for example, DynaMag™-2 Magnet) was used to capture the biotinylated labeled LOXL2 inhibitor (Compound 1-1)/LOXL2 bead bound complex and the supernatant was removed. […]
A Western Blot is then performed with an anti-LOXL2 antibody to quantify the amount of LOXL2 bound to the biotinylated LOXL2 inhibitor (Compound 1-1).

- Ave plasma Cmpd 2 conc ([1]; 150 mg single oral dose, 24 hour post-dose): BLOQ
- concentration at 2 h ([1]; 150 mg single oral dose): 0.966 µM
- concentration at 2 h ([1]; 450 mg single oral dose): 4.38 µM
- concentration at 24 h ([1]; 450 mg single oral dose, 24 hour post-dose): 3.5 nM
- concentration at 2 h ([1]; 1000 mg single oral dose): 12.9 µM
- concentration at 24 h ([1]; 1000 mg single oral dose, 24 hour post-dose): 8 nM
- reduction of unbound/free LOXL2 captured by the biotinylated LOXL2 inhibitor (LOXL2): 70-100%
Compound: NCc1cc(Oc2cccc(C(=O)N3C[C@@H](O)[C@H](F)C3)c2)nc(C(F)(F)F)c1 [Compound 1-13a, (R,R)-trans-(3-((4-(Aminomethyl)-6-(trifluoromethyl)pyridin-2-yl)oxy)phenyl)(3-fluoro-4-hydroxypyrrolidin-1-yl)methanone hydrochloride]
